# Where two headings read alike, the source gives them in different places.
# Experiment: Single dose oral capsule pharmacokinetics of BHV-3500 in dogs (plasma LC-MS/MS)
# Type: in vivo, beagle dogs
# Conditions: female, beagle, dog, plasma; for Tmax: read-out: Tmax; for concentration at 1 h: 1 h post-dose; for concentration at 1 h / concentration at 2 h / concentration at 4 h: read-out: BHV-3500 Concentration in Dog Plasma; for concentration at 2 h: 2 h post-dose; for Cmax: read-out: Cmax; for concentration at 4 h: 4 h post-dose; for AUC(0-t): read-out: AUC0-4 hr
# Experimental: The pharmacokinetics (PK) of BHV-3500 after a single oral capsule of BHV-3500 in dogs were investigated.
# After each dose, blood samples (approximately 3 mL from the jugular vein) for determination of plasma levels of BHV-3500 were obtained from of each dog at six time points (pre-dose; 15, 30, and 60 minutes and 2 and 4 hours post-dose. EDTA was used as the anticoagulant. Plasma samples were frozen at approximately −70′C until analyzed.
# For the determination of BHV-3500 in plasma, a 50 μL aliquot from each sample was transferred into the appropriate well of a 96-well plate to which 10 μL of 50% acetonitrile (ACN) in water was added, followed by 250 μL of internal standard solution (10 ng/mL BHV-3500-d8 in ACN). After sealing the plate and vortexing for approximately 5 minutes, the plate was centrifuged at 4,000 rpm for 10 minutes at 4±4° C. A portion (100 μL) of the resulting supernatant was transferred to into the appropriate well (containing 300 μL 0.15% formic acid in water) of another 96-well plate. This plate was sealed and its contents mixed prior to instrumental analysis.
# Freshly prepared BHV-3500 standard curves and QC samples were analyzed along with the study samples. Instrument calibrators were prepared by adding 10 μL of a stock BHV-3500 solution to 50 μL of blank dog plasma. Blank dog plasma was sourced from BioIVT (Hicksville, NY) and stored frozen at −20° C. Nominal calibrator concentrations ranged from 2.00 to 200 ng/mL. QC samples were prepared at concentrations of 6.00, 50.0 and 150 ng/mL. Calibrators and QC samples were processed for analysis following the extraction procedure described above.
# Calibrator, QC and study samples were analyzed under LC-S/MS instrument conditions detailed in Table 7.
# Calibration curves were calculated from the linear regression (weighting factor of 1/x2) of the analyte to internal standard peak area ratios versus the analyte concentrations. Concentrations of analyte in the samples were determined using the peak area ratios and the regression parameters of the calibration curves.
# Individual animal plasma BHV-3500 concentration data at scheduled (nominal) sampling times were analyzed using the non-compartmental model f r extravascular administration with Phoenix WinNonlin software (Version 8.1; Certara, Princeton, NJ).
# Elimination rate constant values (λz) were calculated by log-linear regression on data points of the terminal phase (using Phoenix WinNonlin's Best Fit Lambda Z Calculation Method option) when allowed by the data; the plasma elimination half-life (t1/2) was calculated as ln(2)/λz. Area under the plasma concentration-time curve values from time zero to the concentration at the 4 hour time point (AUC0-4 hr) were calculated by the linear-up/log-down trapezoidal rule.
# Nominal dose levels were used for PK analysis. The PK parameters listed below were evaluated (as applicable and when allowed by the data). • Elimination half-life (t1/2) • Time of occurrence of maximum plasma concentration (Tmax) • Maximum plasma concentration (Cmax) • Area under plasma concentration-time curve [0 to the 4 hour time point; AUC0-4hr]
# [1] = po, 50 mg, Group 4, oral capsule, 50 mg BHV-3500, no vehicle, average
# [2] = po, 50 mg, Group 4, oral capsule, 50 mg BHV-3500, no vehicle, individual dogs
# [3] = po, 50 mg, Group 5, oral capsule, 50 mg BHV-3500 in 900 mg vehicle of Formulation 2 (SEDDS excipients), average
# [4] = po, 50 mg, Group 6, oral capsule, 50 mg BHV-3500 in 25 mg DDM, average
# [5] = po, 50 mg, Group 6, oral capsule, 50 mg BHV-3500 in 25 mg DDM, individual dogs
# [6] = Group 2, oral capsule, 20 mg BHV-3500 in 900 mg vehicle of Formulation 2 (SEDDS excipients), individual dogs
compound,measurement,setting,value
"Cc1cc(C[C@@H](NC(=O)N2CCC(c3cc4ccccc4[nH]c3=O)CC2)C(=O)N2CCN(C3CCN(C)CC3)CC2)cc2cn[nH]c12 [BHV-3500, (R)—N-(3-(7-methyl-1H indazol-5-yl)-1-(4-(1-methylpiperidin-4-yl)piperazin-1-yl)-1-oxopropan-2-yl)-4-(2-oxo-1,2 dihydroquinolin-3-yl)piperidine-1-carboxamide]",Tmax,"po, 20 mg, Group 3, oral capsule, 20 mg BHV-3500 in 25 mg DDM, median",2 h
same,concentration at 1 h,[1],3.35 ng/mL
same,concentration at 1 h,[2],2.25 ng/mL
same,concentration at 2 h,[1],6.18 ng/mL
same,concentration at 2 h,[2],7.57 ng/mL
same,Cmax,[1],6.18 ng/mL
same,Cmax,[2],7.57 ng/mL
same,Tmax,[2],2 h
same,Tmax,"po, 50 mg, Group 4, oral capsule, 50 mg BHV-3500, no vehicle, median",2 h
same,concentration at 1 h,[3],11.5 ng/mL
same,concentration at 2 h,[3],40.6 ng/mL
same,concentration at 4 h,[3],7.97 ng/mL
same,AUC(0-t),[3],70.6 ng·h/mL
same,Cmax,[3],40.6 ng/mL
same,Tmax,"po, 50 mg, Group 5, oral capsule, 50 mg BHV-3500 in 900 mg vehicle of Formulation 2 (SEDDS excipients), individual dogs",2 h
same,Tmax,"po, 50 mg, Group 5, oral capsule, 50 mg BHV-3500 in 900 mg vehicle of Formulation 2 (SEDDS excipients), median",2 h
same,concentration at 1 h,[4],2.42 ng/mL
same,concentration at 1 h,[5],2.42 ng/mL
same,concentration at 2 h,[4],6.05 ng/mL
same,concentration at 2 h,[5],6.05 ng/mL
same,concentration at 4 h,[4],8.67 ng/mL
same,concentration at 4 h,[5],12 ng/mL
same,AUC(0-t),[4],17.3 ng·h/mL
same,Cmax,[4],6.59 ng/mL
same,Tmax,"po, 50 mg, Group 6, oral capsule, 50 mg BHV-3500 in 25 mg DDM, median",4 h
same,concentration at 1 h,[6],2.57 ng/mL
same,concentration at 4 h,[6],3.09 ng/mL
same,concentration at 4 h,"Group 6, oral capsule, 50 mg BHV-3500 in 25 mg DDM, individual dogs",5.34 ng/mL

# Reference: patent US12622968B2, “Formulation for oral delivery of proteins, peptides and small molecules with poor permeability” (R.P. Scherer Technologies, LLC, priority 2019, dated 2026)
